Values quoted from earlier work, collected in patent US20250319022A1, “CONCENTRATED SOLUTIONS COMPRISING SODIUM 5,10-METHYLENE-(6R)-TETRAHYDROFOLATE” (Merck Patent GMBH, priority 2022, published 2025).

purity after 7 hours (7 hours after dissolution): 84%
purity after 24 hours compared to the starting purity (% normalized purity) (24 hours following dissolution in water): 44.9%
loss of purity per hour (degradation rate) (reconstituted lyophilizate, linear regression of stability profile): 2.3 % purity per hour
Compound: Nc1nc2c(c(=O)[nH]1)N1CN(c3ccc(C(=O)N[C@@H](CCC(=O)O)C(=O)O)cc3)C[C@H]1CN2 [5,10-methylene-(6R,S)-tetrahydrofolic acid]
